Test results as given in US11427553B2, “Dihydrooxadiazinones” (Bayer Aktiengesellschaft, priority 2017, dated 2022).

Tests used:
[1] = biological target: human full length PDE3B (Homo sapiens (Human), UniProt Q13370); assay: Assay 5 PDE3B enzyme inhibition (3H-cAMP SPA); type: biochemical; details: Sf9 cell extract
In short: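 Compounds in DMSO are mixed with diluted PDE3B extract from Sf9 cells, and reactions start on adding tritiated cAMP. After 60 min at room temperature, yttrium scintillation proximity beads terminate hydrolysis and signal is counted; IC50 values come from sigmoidal dose-response curves.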

[2] = biological target: human full length PDE3A (Homo sapiens (Human), UniProt Q14432); assay: Assay 4 PDE3A enzyme inhibition (3H-cAMP SPA); type: biochemical; details: Sf9 cell extract
In short: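 In this SPA format, the 60-min room-temperature reaction used 0.025 μCi [8-3H]cAMP and diluted full-length PDE3A from Sf9 cells. Percentage activity was plotted against log compound concentration to derive IC50.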

[3] = test system: SK-MEL-3 cells; assay: Assay 1 cell proliferation measurement (CTG, 72 h), SK-MEL-3; type: cell-based, human; details: Homo sapiens, SK-MEL3; Assay 1, 72 h, Cell Titer Glo; read-out: SK-MEL-3 IC50 [nM] (melanoma)
In short: (§1)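 Seed cells, incubate overnight at 37 °C; measure baseline viability (CTG, 0 h plate); dose compound in a 10-step 2.5-fold series (max generally 100 nM final, DMSO 0.3%) for 72 h; read CTG luminescence; fit IC50 with 4 parameters.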

[4] = test system: HeLa cells; assay: Assay 1 cell proliferation measurement (CTG, 72 h), HeLa; type: cell-based, human; details: Homo sapiens, HeLa; Assay 1, 72 h, Cell Titer Glo; read-out: HeLa IC50 [nM] (Cervical cancer)
In short: as §1

human full length PDE3B, sequence (Q13370 whole entry): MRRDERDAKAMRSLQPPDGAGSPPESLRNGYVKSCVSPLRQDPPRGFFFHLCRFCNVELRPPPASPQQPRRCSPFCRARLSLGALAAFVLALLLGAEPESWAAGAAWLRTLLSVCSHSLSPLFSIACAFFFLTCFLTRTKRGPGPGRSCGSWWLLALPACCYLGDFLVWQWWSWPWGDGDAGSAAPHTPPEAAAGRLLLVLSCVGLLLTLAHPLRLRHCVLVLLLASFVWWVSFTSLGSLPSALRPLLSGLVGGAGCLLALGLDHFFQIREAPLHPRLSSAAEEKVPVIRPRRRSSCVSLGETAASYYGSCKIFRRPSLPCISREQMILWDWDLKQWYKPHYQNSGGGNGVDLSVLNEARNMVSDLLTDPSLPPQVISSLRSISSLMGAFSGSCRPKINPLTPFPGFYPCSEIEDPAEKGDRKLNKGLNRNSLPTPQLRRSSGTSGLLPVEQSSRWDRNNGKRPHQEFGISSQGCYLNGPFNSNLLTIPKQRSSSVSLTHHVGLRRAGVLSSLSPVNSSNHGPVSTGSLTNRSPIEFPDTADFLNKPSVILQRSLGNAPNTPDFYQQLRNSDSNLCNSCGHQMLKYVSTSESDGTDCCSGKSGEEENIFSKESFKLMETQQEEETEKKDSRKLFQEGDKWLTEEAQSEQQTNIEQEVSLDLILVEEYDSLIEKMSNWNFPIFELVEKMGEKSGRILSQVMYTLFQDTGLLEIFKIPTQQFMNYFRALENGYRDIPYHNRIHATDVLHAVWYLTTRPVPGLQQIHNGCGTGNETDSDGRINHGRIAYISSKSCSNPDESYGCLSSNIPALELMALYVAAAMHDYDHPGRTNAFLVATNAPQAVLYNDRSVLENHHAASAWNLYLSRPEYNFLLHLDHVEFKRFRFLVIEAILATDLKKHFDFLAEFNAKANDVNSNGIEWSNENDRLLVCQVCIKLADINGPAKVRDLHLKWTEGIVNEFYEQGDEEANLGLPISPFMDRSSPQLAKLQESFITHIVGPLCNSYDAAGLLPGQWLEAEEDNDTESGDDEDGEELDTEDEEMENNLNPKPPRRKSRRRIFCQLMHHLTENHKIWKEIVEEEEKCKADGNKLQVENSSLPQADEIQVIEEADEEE
human full length PDE3A, sequence (Q14432 whole entry): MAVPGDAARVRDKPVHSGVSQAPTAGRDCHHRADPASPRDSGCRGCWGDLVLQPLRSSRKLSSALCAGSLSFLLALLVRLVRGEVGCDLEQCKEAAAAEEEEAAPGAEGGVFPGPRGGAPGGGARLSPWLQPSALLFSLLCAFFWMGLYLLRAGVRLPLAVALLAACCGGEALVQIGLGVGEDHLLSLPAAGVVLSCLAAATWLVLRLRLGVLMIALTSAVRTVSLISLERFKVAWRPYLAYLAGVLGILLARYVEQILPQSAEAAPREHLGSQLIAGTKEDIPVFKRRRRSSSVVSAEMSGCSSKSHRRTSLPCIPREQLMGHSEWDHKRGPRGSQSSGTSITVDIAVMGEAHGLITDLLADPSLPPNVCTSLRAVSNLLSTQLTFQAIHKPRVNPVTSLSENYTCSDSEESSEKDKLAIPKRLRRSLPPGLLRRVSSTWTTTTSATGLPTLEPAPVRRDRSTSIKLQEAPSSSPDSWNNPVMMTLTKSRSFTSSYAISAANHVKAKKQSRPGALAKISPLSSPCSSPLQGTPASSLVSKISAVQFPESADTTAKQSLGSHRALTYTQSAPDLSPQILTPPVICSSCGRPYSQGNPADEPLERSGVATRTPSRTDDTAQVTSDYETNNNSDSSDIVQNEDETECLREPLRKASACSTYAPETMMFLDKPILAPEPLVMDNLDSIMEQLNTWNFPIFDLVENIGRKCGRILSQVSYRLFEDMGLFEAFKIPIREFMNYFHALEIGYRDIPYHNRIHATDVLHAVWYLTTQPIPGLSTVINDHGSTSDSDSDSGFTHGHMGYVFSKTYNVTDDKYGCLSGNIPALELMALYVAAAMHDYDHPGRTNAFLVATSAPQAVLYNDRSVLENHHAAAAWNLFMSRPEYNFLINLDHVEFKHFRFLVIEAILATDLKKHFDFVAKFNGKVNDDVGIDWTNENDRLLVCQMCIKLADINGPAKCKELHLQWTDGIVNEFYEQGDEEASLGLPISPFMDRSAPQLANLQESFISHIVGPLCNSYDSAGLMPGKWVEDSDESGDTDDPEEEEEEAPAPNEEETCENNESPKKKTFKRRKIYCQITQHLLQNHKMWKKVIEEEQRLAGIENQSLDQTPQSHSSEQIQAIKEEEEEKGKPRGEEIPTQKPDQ

Row | SMILES | IC50 [1] | IC50 [2] | IC50 [3] | IC50 [4]
1 | Cc1cc(C#N)ccc1-c1ccc(C2=NNC(=O)OC2)cc1F [Example 163, 2′-Fluoro-2-methyl-4′-(2-oxo-3,6-dihydro-2H-1,3,4-oxadiazin-5-yl)[1,1′-biphenyl]-4-carbonitrile] | 51 nM | 35 nM | 14 nM | 8 nM
2 | Cc1ccc(-c2ccc(C3=NNC(=O)O[C@H]3C)cc2C(F)(F)F)cc1 [Example 189, (6S)-6-Methyl-5-[4′-methyl-2-(trifluoromethyl)[1,1′-biphenyl]-4-yl]-3,6-dihydro-2H-1,3,4-oxadiazin-2-one] | 200 nM | 190 nM | 12 nM | 6 nM
3 | Nc1ccc(-c2ccc(C3=NNC(=O)OC3)cc2F)cc1 [Example 80, 5-(4′-Amino-2-fluorobiphenyl-4-yl)-3,6-dihydro-2H-1,3,4-oxadiazin-2-one] | 87 nM | 34 nM | 6 nM | 2 nM
4 | O=C1NN=C(c2cc(F)c(N3CCOCC3)c(F)c2)CO1 [Example 21, 5-[3,5-Difluoro-4-(morpholin-4-yl)phenyl]-3,6-dihydro-2H-1,3,4-oxadiazin-2-one] | 185 nM | 175 nM | > 67 nM | 15 nM
5 | N#Cc1cc(C2=NNC(=O)OC2)ccc1N1CCOCC1 [Example 22, 2-(Morpholin-4-yl)-5-(2-oxo-3,6-dihydro-2H-1,3,4-oxadiazin-5-yl)benzonitrile] | 33 nM | 52 nM | 51 nM | 26 nM
6 | Cc1ccc(-c2ccc(C3=NNC(=O)O[C@H]3C)cc2C(F)(F)F)cc1F [Example 178, (6S)-5-[3′-Fluoro-4′-methyl-2-(trifluoromethyl)[1,1′-biphenyl]-4-yl]-6-methyl-3,6-dihydro-2H-1,3,4-oxadiazin-2-one] | 130 nM | 140 nM | 19 nM | 13 nM
7 | COc1ccccc1-c1ccc(C2=NNC(=O)OC2)cc1F [Example 116, 5-(2-Fluoro-2′-methoxy[1,1′-biphenyl]-4-yl)-3,6-dihydro-2H-1,3,4-oxadiazin-2-one] | 76 nM | 79 nM | 35 nM | 16 nM
8 | O=C1NN=C(c2ccc(C3=CCNCC3)c(C(F)(F)F)c2)CO1 [Example 328, 5-[4-(1,2,3,6-tetrahydropyridin-4-yl)-3-(trifluoromethyl)phenyl]-3,6-dihydro-2H-1,3,4-oxadiazin-2-one] | 91 nM | 74 nM | > 100 nM | 47 nM
9 | CC(C)=Cc1ccc(C2=NNC(=O)OC2)cc1OC(F)(F)F [Example 164, 5-[4-(2-Methylprop-1-en-1-yl)-3-(trifluoromethoxy)phenyl]-3,6-dihydro-2H-1,3,4-oxadiazin-2-one] | 200 nM | 300 nM | 8 nM | 6 nM
10 | O=C1NN=C(c2ccc([C@H]3CC[C@@H](O)CC3)c(C(F)(F)F)c2)CO1 [Example 273, (cis)-5-{4-[4-Hydroxycyclohexyl]-3-(trifluoromethyl)phenyl}-3,6-dihydro-2H-1,3,4-oxadiazin-2-one] | 53 nM | 44 nM | 1 nM | 1 nM
11 | O=C1NN=C(c2ccc(C3CCCOC3)c(C(F)(F)F)c2)CO1 (racemic) [Example 271, (rac)-5-{4-[Oxan-3-yl]-3-(trifluoromethyl)phenyl}-3,6-dihydro-2H-1,3,4-oxadiazin-2-one] | 25 nM | 27 nM | 3 nM | 1 nM
12 | C[C@@H]1OC(=O)NN=C1c1ccc(-c2cccc(F)c2)c(C(F)(F)F)c1 [Example 181, (6S)-5-[3′-Fluoro-2-(trifluoromethyl)[1,1′-biphenyl]-4-yl]-6-methyl-3,6-dihydro-2H-1,3,4-oxadiazin-2-one] | 77 nM | 74 nM | 6 nM | 3 nM
13 | Cc1ccc(-c2ccc(C3=NNC(=O)OC3)cc2F)cc1 [Example 88, 5-(2-Fluoro-4′-methylbiphenyl-4-yl)-3,6-dihydro-2H-1,3,4-oxadiazin-2-one] | 250 nM | 110 nM | 6 nM | 2 nM
14 | C[C@@H]1OC(=O)NN=C1c1ccc(-c2ccc(F)cc2F)c(C(F)(F)F)c1 [Example 177, (6S)-5-[2′,4′-Difluoro-2-(trifluoromethyl)[1,1′-biphenyl]-4-yl]-6-methyl-3,6-dihydro-2H-1,3,4-oxadiazin-2-one] | 130 nM | 160 nM | 17 nM | 12 nM

More lines, now with the values ahead:

Row | IC50 [1] | IC50 [2] | IC50 [3] | IC50 [4] | SMILES
15 | 80 nM | 65 nM | 10 nM | 6 nM | O=C1NN=C(c2ccc(-c3cccnc3)c(C(F)(F)F)c2)CO1 [Example 33, 5-[4-(Pyridin-3-yl)-3-(trifluoromethyl)phenyl]-3,6-dihydro-2H-1,3,4-oxadiazin-2-one]
16 | 270 nM | 280 nM | > 100 nM | > 100 nM | Cc1n[nH]c(C)c1-c1ccc(C2=NNC(=O)OC2)cc1C(F)(F)F [Example 128, 5-[4-(3,5-Dimethyl-1H-pyrazol-4-yl)-3-(trifluoromethyl)phenyl]-3,6-dihydro-2H-1,3,4-oxadiazin-2-one]
17 | 250 nM | 150 nM | 38 nM | 18 nM | O=C1NN=C(c2ccc(-c3cc(F)ccc3F)c(C(F)(F)F)c2)CO1 [Example 59, 5-[2′,5′-Difluoro-2-(trifluoromethyl)biphenyl-4-yl]-3,6-dihydro-2H-1,3,4-oxadiazin-2-one]
18 | 200 nM | 190 nM | 9 nM | 14 nM | Nc1ccc(-c2ccc(C3=NNC(=O)OC3)cc2C(F)(F)F)c(F)c1 [Example 44, 5-[4′-Amino-2′-fluoro-2-(trifluoromethyl)biphenyl-4-yl]-3,6-dihydro-2H-1,3,4-oxadiazin-2-one]
19 | 63 nM | 76 nM | 12 nM | 5 nM | O=C1NN=C(c2ccc(-c3cn[nH]c3)c(C(F)F)c2)CO1 [Example 202, 5-(3-(difluoromethyl)-4-(1H-pyrazol-4-yl)phenyl)-3H-1,3,4-oxadiazin-2(6H)-one]
20 | 130 nM | 41 nM | 6 nM | 3 nM | COC(C)(C)CNc1ccc(C2=NNC(=O)OC2)cc1C(F)(F)F [Example 258, 5-{4-[(2-Methoxy-2-methylpropyl)amino]-3-(trifluoromethyl)phenyl}-3,6-dihydro-2H-1,3,4-oxadiazin-2-one]
21 | 450 nM | 260 nM | 38 nM | 16 nM | CN(c1ccc(C2=NNC(=O)OC2)cc1C(F)(F)F)C1CCCC1 [Example 132, 5-{4-[Cyclopentyl(methyl)amino]-3-(trifluoromethyl)phenyl}-3,6-dihydro-2H-1,3,4-oxadiazin-2-one]
22 | 250 nM | 240 nM | 5 nM | 2 nM | O=C1NN=C(c2ccc(C3=CCCC3)c(C(F)(F)F)c2)CO1 [Example 150, 5-[4-(Cyclopent-1-en-1-yl)-3-(trifluoromethyl)phenyl]-3,6-dihydro-2H-1,3,4-oxadiazin-2-one]
23 | 130 nM | 150 nM | 12 nM | 37 nM | O=C1NN=C(c2ccc(-c3ccc(F)c(O)c3)c(C(F)(F)F)c2)CO1 [Example 37, 5-[4′-Fluoro-3′-hydroxy-2-(trifluoromethyl)biphenyl-4-yl]-3,6-dihydro-2H-1,3,4-oxadiazin-2-one]
24 | 600 nM | 550 nM | > 100 nM | 38 nM | O=C1NN=C(c2ccc(N[C@H]3CCC[C@H]3O)c(C(F)(F)F)c2)CO1 [Example 261, 5-[4-{[(1S,2R)-2-Hydroxycyclopentyl]amino}-3-(trifluoromethyl)phenyl]-3,6-dihydro-2H-1,3,4-oxadiazin-2-one]
25 | 280 nM | 91 nM | 36 nM | 16 nM | Cc1ncc(-c2ccc(C3=NNC(=O)OC3)cc2F)cn1 [Example 94, 5-[3-Fluoro-4-(2-methylpyrimidin-5-yl)phenyl]-3,6-dihydro-2H-1,3,4-oxadiazin-2-one]
26 | 42 nM | 32 nM | 6 nM | 2 nM | CCn1cc(-c2ccc(C3=NNC(=O)OC3)cc2C(F)(F)F)cn1 [Example 131, 5-[4-(1-Ethyl-1H-pyrazol-4-yl)-3-(trifluoromethyl)phenyl]-3,6-dihydro-2H-1,3,4-oxadiazin-2-one]
27 | > 1000 nM | > 1000 nM | 71 nM | 44 nM | Cc1ccc(-c2ccc(C3=NNC(=O)OC3)cc2C(F)(F)F)nc1 [Example 157, 5-[4-(5-Methylpyridin-2-yl)-3-(trifluoromethyl)phenyl]-3,6-dihydro-2H-1,3,4-oxadiazin-2-one]
28 | 215 nM | 195 nM | 9 nM | 5 nM | O=C1NN=C(c2cc(F)c(-c3cnn(C(F)F)c3)c(C(F)(F)F)c2)CO1 [Example 193, 5-{4-[1-(Difluoromethyl)-1H-pyrazol-4-yl]-3-fluoro-5-(trifluoromethyl)phenyl}-3,6-dihydro-2H-1,3,4-oxadiazin-2-one]
